The values that follow come from publication PMC11714206, “Massively Parallel Screening of Toll/Interleukin‐1 Receptor (TIR)‐Derived Peptides Reveals Multiple Toll‐Like Receptors (TLRs)‐Targeting Immunomodulatory Peptides” (Advanced Science, 2024).

This experiment has as its target T1, MAL^TIR (Homo sapiens, UniProt P58753).
T1 construct: MAL (residues 79–221); 6xHis; made in house; host or cells: E. coli BL21 (DE3)
As to the kind of experiment: T‐Surf phage library (P8 and P3) selection against MAL^TIR, four rounds, NGS read counts. Conditions: for P3_MAL Rank (after) / P3_MAL Rank (before): P3 library; for Population: P3_MAL pool: P3 T-Surf phage library, 4th round of selection against MAL TIR, share of NGS reads; for P8_MAL Rank (after) / P8_MAL Rank (before): P8 library. The experiment is classed as binding. An outline of the steps:
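Coat TIR domain 5 µg mL^−1 overnight; block 0.2% BSA/PBS 1 h, 4 °C; add phage library 1 h, RT; wash ×4 PBS/0.5% Tween‐20; elute 100 mM HCl, neutralize Tris; amplify in TG1, PEG‐precipitate. Repeat to round 4; barcode PCR, NovaSeq, count reads.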

[1] abbreviates: 4R selection against MAL, rank after grouping.
Where [2] appears, read: 4R selection against MAL, rank before grouping.
Where [3] appears, read: P3_MAL: rank by count after grouping.
Where [4] appears, read: P3_MAL: rank by count before grouping.
The mark [5] stands for this setting: selection against MAL TIR, rank by count after grouping.
The mark [6] stands for this setting: selection against MAL TIR, rank by count before grouping.
[7] abbreviates: selection against MAL, rank after grouping.
Setting [8] is: selection against MAL, rank before grouping.
Setting [9] is: P8_MAL: rank by count after grouping.
The mark [10] stands for this setting: P8_MAL: rank by count before grouping.
Setting [11] is: selection against MAL, rank by count after grouping.
The mark [12] stands for this setting: selection against MAL, rank by count before grouping.

T1 sequence (P58753 79-221): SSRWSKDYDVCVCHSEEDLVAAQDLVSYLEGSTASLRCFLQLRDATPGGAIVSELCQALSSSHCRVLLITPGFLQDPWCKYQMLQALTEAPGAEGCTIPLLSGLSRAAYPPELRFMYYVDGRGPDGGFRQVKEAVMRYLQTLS

Turning to NQWRNALTATANLSGL, under setting [1], the “P3_MAL Rank (after)” value worked out at 604. In addition, under setting [2], the “P3_MAL Rank (before)” value turned out to be 3390.

As for NQWRNALTAVANLSGW, the Population is 0.00451%.

NQWRNALTKVANLV displayed a Population of 0.00639%. Besides, under setting [3], the “Rank (after)” value is reported as 107. The “Rank (before)” value under setting [4] stood at 124.

With NQWRNAQTAAAKLSGW, the “Rank (after)” value under setting [3] was found to be 152. Further, the “Rank (before)” value under setting [4] was found to be 3399.

On to NQWRNELNAAANLSGW, for which, under setting [5], the “P3_MAL Rank (after)” value stood at 255. The “P3_MAL Rank (before)” value under setting [6] worked out at 3406.

Regarding NQWRNELTAAANLNGW, under setting [7], the “P3_MAL Rank (after)” value came to 508. Moreover, the “P3_MAL Rank (before)” value under setting [8] is reported as 3405.

With NQWRNSLTAAANLRGW, under setting [3], the “Rank (after)” value came to 173. Besides, the “Rank (before)” value under setting [4] was determined as 3340.

Take NQWRNSLTAAANLSCW: under setting [5], the “P3_MAL Rank (after)” value worked out at 204. The “P3_MAL Rank (before)” value under setting [6] stood at 3341.

On to NQWRNSLTAAANLSGR, for which, under setting [3], the “Rank (after)” value worked out at 176. In addition, the “Rank (before)” value under setting [4] came to 3342.

Sequence NQWRNTLTAAANLSGW returned a Population of 0.00376%.

Take NQWSNELTAAANLRGW: the “P3_MAL Rank (after)” value under setting [7] is listed as 575. The “P3_MAL Rank (before)” value under setting [8] came to 3420.

For the sequence NQWSNSLTAAANLSGW, the “Rank (after)” value under setting [3] was 186. Moreover, the “Rank (before)” value under setting [4] is given as 3419.

Sequence NRWRNALTAAANLSGW registered a Population of 0.00376%.

For the sequence NSFRERLRHLMAHSKM, the “P3_MAL Rank (after)” value under setting [1] turned out to be 620. The “P3_MAL Rank (before)” value under setting [2] was 3479.

NYASSSWALDELWNIF: the “P8_MAL Rank (after)” value under setting [7] amounted to 502. Under setting [8], the “P8_MAL Rank (before)” value is listed as 2655.

With PDKDKGGENAFINNIV, the “P3_MAL Rank (after)” value under setting [7] was 488. Besides, the “P3_MAL Rank (before)” value under setting [8] is given as 2636.

Consider PEKDHGGENAIIKNIE, for which the “P3_MAL Rank (after)” value under setting [7] is reported as 556. The “P3_MAL Rank (before)” value under setting [8] was 2639.

Regarding PEKDNGGANAFSNNIV, the “P3_MAL Rank (after)” value under setting [5] is 200. Also, the “P3_MAL Rank (before)” value under setting [6] came to 2645.

Consider PEKDTVRVNVIIHNIV, for which the “Rank (after)” value under setting [3] was 470. Moreover, under setting [4], the “Rank (before)” value is listed as 2642.

For PESGKLASGAGKSGQT, the “P3_MAL Rank (after)” value under setting [1] was 609. In addition, the “P3_MAL Rank (before)” value under setting [2] was 2638.

For the sequence PFFWAQLKSLLRNPTS, under setting [7], the “P8_MAL Rank (after)” value turned out to be 574. The “P8_MAL Rank (before)” value under setting [8] was determined as 2320.

Consider PFFWEHLRHLLRSHTL, for which the “Rank (after)” value under setting [9] stood at 480. Under setting [10], the “Rank (before)” value was found to be 2325.

In the case of PFFWEQLRTVLGKPTK, the “P8_MAL Rank (after)” value under setting [7] is listed as 510. For the same sequence, under setting [8], the “P8_MAL Rank (before)” value was 2323.

In the case of PFLGHLSNALVQAGIH, the “Rank (after)” value under setting [9] is reported as 132. Further, the “Rank (before)” value under setting [10] came to 2331.

In the case of PFLVHQYNEALQADSH, the “P8_MAL Rank (after)” value under setting [11] stood at 695. In addition, the “P8_MAL Rank (before)” value under setting [12] came to 2330.

Turning to PKLRTKVLKYQMRTKT, under setting [3], the “Rank (after)” value is listed as 426. Further, the “Rank (before)” value under setting [4] was 2762.

Regarding PKLRTKVMNYLMRTKT, the “Rank (after)” value under setting [3] turned out to be 155. In addition, the “Rank (before)” value under setting [4] was 2759.

Turning to PLLYTFLINLTHPTNF, under setting [9], the “Rank (after)” value is on record as 104. Further, under setting [10], the “Rank (before)” value is recorded as 2327.

Take PNLGTKTLNYLTRTKT: under setting [11], the “P3_MAL Rank (after)” value is 730. The “P3_MAL Rank (before)” value under setting [12] amounted to 2666.

Regarding PNLLTKVLHYLMRTKT, the “P3_MAL Rank (after)” value under setting [11] is on record as 768. Besides, the “P3_MAL Rank (before)” value under setting [12] was found to be 2667.

Take PNLRNKVLNYLLRTKT: under setting [7], the “P3_MAL Rank (after)” value turned out to be 574. Also, the “P3_MAL Rank (before)” value under setting [8] is recorded as 2748.

With PNLRPKVRNYLIRTKT, under setting [7], the “P3_MAL Rank (after)” value amounted to 532. In addition, the “P3_MAL Rank (before)” value under setting [8] was 2672.

For the sequence PNLRPQVLNYLIRTKT, under setting [5], the “P3_MAL Rank (after)” value was determined as 208. Moreover, under setting [6], the “P3_MAL Rank (before)” value is given as 2670.

Consider PNLRTKELIYLMRTKT, for which, under setting [1], the “P3_MAL Rank (after)” value was 667. Under setting [2], the “P3_MAL Rank (before)” value is 2738.

As to PNLRTKGLNYLMRTKT, the Population worked out at 0.00338%.

On to PNLRTKGLNYRMRTKT, for which, under setting [3], the “Rank (after)” value amounted to 415. Besides, the “Rank (before)” value under setting [4] amounted to 2736.
